For the data set the following is noted: mouse, in vivo.

Each structure is given as a SMILES string. Read-outs that look alike come from different tables or passages of the source.

On to `O=C(O)c1cn(C2CC2)c2cc(N3CCNCC3)c(F)cc2c1=O` [ciprofloxacin], for which, where the note is “sc, 25 mg/kg”, the tolerance entry was “favorably tested”. Consider `C[C@H]1c2cccc(O)c2C(=O)C2=C(O)[C@]3(O)C(=O)C(C(N)=O)=C(O)[C@@H](N(C)C)[C@@H]3[C@@H](O)[C@@H]21` [doxycycline], for which the tolerance entry (50 mg/kg) is reported as “poorly tolerated”.

These data come from patent US10059760B2 (priority 2014, dated 2018).
